Experimental data: patent US9701680B2, “Pyrimidine and pyridine compounds and their usage” (HUTCHISON MEDIPHARMA LIMITED, priority 2013, dated 2017)
Read-outs that look alike come from different tables or passages of the source.

What was measured:
[1] = molecular target: Recombinant human FGFR1 (Homo sapiens, UniProt P11362); test: Transcreener Kinase Assay of FGFR1; format: biochemical
Procedure, shortened: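 Recombinant human FGFR1 was reacted with Poly E4Y substrate and ATP for 45 min at 28 °C, with compounds at 1 to 0.0005 µM in 1% DMSO final. Inhibition is relative to the DMSO control, with IC50 from a curve fit.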

[2] = molecular target: Recombinant human FGFR2 (Homo sapiens, UniProt P21802); test: Transcreener Kinase Assay of FGFR2; format: biochemical
[3] = molecular target: FGFR3 kinase (Homo sapiens, UniProt P22607); test: Z-Lyte Kinase Assay of FGFR3; format: biochemical
Procedure, shortened: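 Z-LYTE FRET assay, kinase 0.7 μg/ml with Tyr 4 peptide 4 μM (P/K solution), ATP diluted to 300 uM in 1.33× buffer; compound final 1 to 0.00046 μM, 2% DMSO.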

[4] = test system: KG-1; test: Cellular Proliferation Assay (Cell Counting Kit-8), KG-1; format: cell-based; conditions: Homo sapiens; KG-1 cells, 72 hours; read-out: KG1 IC50
Procedure, shortened: (§1)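 Seeding per well: KG-1 30000, SNU-16 5000, RT-112 1000 cells. After 24 h an 8-point series (working dilutions 10 to 0.004 μM in 5% DMSO) was added for 72 h at 37 °C, 5% CO2. CCK-8 OD450 after 1 h, corrected for media background and normalised to untreated cells, gave IC50.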

[5] = test system: SNU-16; test: Cellular Proliferation Assay (Cell Counting Kit-8), SNU-16; format: cell-based; conditions: Homo sapiens; SNU-16 cells, 72 hours
Procedure, shortened: as §1

[6] = test system: RT-112; test: Cellular Proliferation Assay (Cell Counting Kit-8), RT-112; format: cell-based; conditions: Homo sapiens; RT-112 cells, 72 hours
Procedure, shortened: as §1

Sequence of Recombinant human FGFR2 (P21802 22-821): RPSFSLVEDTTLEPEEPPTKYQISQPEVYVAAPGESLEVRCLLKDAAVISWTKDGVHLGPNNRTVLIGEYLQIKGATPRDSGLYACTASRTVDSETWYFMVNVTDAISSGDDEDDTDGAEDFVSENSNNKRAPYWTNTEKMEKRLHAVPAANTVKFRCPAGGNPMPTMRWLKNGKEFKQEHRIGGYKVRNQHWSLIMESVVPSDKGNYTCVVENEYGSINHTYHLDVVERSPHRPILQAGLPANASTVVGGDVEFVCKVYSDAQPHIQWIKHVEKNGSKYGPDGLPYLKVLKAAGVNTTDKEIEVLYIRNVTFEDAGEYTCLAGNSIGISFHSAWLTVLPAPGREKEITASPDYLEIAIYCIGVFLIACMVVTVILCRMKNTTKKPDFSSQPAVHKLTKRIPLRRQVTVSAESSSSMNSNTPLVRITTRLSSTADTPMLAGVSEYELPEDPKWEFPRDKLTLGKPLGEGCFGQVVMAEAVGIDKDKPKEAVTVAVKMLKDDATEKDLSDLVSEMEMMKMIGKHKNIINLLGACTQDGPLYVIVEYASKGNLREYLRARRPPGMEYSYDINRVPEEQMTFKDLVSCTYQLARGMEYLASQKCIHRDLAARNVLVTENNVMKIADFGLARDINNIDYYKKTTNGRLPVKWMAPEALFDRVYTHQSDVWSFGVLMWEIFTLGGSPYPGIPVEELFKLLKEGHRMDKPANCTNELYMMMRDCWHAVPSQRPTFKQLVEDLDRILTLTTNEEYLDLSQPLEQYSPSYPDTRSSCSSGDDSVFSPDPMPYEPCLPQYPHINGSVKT
Sequence of Recombinant human FGFR1 (P11362 22-822): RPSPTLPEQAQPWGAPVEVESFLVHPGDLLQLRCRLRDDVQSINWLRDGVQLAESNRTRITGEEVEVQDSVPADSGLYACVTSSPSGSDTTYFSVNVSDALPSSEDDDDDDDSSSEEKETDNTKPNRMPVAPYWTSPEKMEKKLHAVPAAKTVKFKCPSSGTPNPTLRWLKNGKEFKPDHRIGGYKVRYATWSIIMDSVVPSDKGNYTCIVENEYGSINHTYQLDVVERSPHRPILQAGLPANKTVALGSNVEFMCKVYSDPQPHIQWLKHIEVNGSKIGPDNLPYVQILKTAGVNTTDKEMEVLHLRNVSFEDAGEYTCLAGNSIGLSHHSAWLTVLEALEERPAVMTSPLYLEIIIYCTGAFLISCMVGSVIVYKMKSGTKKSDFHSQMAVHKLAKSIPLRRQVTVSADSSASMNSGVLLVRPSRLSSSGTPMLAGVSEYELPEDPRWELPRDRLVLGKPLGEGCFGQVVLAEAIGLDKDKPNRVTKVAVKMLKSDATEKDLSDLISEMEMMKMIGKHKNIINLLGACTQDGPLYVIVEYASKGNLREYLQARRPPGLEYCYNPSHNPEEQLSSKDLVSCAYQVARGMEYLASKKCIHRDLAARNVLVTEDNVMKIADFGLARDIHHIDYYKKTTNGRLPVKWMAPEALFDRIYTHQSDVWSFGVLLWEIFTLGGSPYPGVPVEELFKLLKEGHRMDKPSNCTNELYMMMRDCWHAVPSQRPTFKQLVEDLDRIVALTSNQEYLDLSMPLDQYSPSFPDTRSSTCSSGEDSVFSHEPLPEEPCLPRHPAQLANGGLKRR
Sequence of FGFR3 kinase (P22607 23-806): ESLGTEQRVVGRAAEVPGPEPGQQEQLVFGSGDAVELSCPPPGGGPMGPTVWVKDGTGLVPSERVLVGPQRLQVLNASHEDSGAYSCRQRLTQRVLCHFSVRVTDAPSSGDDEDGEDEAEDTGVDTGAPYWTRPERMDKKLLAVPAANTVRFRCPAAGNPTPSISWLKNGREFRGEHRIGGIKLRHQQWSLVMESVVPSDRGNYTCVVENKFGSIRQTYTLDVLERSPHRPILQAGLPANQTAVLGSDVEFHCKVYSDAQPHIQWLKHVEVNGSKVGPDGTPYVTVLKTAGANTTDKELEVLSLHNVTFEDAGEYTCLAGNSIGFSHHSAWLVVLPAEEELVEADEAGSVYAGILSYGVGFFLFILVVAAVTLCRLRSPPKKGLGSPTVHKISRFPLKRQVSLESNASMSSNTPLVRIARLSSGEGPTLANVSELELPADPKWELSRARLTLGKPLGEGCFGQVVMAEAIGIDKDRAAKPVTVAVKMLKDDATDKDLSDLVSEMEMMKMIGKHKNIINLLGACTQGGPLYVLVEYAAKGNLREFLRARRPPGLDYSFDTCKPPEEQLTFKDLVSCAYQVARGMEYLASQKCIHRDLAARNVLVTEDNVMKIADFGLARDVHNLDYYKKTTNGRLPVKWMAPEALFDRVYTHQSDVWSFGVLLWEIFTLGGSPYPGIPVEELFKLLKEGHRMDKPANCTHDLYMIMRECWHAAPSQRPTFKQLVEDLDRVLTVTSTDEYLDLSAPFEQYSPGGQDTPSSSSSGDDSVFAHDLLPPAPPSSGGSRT

IC50 ([1]; read-out: FGFR1 (FP) IC50) [nM] | IC50 ([2]; read-out: FGFR2 (FP) IC50) [nM] | IC50 [3] [nM] | IC50 [5] [nM] | IC50 ([1]; FP) [nM] | IC50 ([2]; FP) [nM] | IC50 ([3]; Z-lyte) [nM] | Structure (SMILES) | IC50 [4] [nM] | IC50 [6] [nM]
10 | 10 | 13 | 115 |  |  |  | CNC(=O)c1cc(COc2cnc(Nc3ccc([C@@H]4CCCNC4)nc3)nc2)c(Cl)c(OC)c1 [Compound 244] | 362 | 585
16 | 17 | 18 | 136 |  |  |  | CNC(=O)c1cc(COc2cnc(Nc3ccc([C@H]4CCCNC4)nc3)nc2)c(Cl)c(OC)c1 [Compound 245] | 533 | 581
34 | 16 | 23 | 28 |  |  |  | CNC(=O)c1cc(COc2cnc(Nc3ccc(N4CCOCC4)nc3)nc2)c(Cl)c(OC)c1 [Compound 247] | 42 | 57
16 | 11 | 14 | 9 |  |  |  | CNC(=O)c1cc(COc2cnc(Nc3cnn(C[C@@H]4COC(C)(C)O4)c3)nc2)c(F)c(OC)c1 [Compound 248] | 6 | 21
38 | 14 | 15 | 10 |  |  |  | CNC(=O)c1cc(COc2cnc(Nc3cnn(C[C@H]4COC(C)(C)O4)c3)nc2)c(F)c(OC)c1 [Compound 249] | 27 | 30
25 | 23 | 24 | 41 |  |  |  | CCN(CC)CCn1cc(Nc2ncc(OCc3c(F)c(OC)cc(C(=O)NC)c3F)cn2)cn1 [Compound 251] | 31 | 87
21 | 22 | 16 | 8 |  |  |  | CCN1CCC(c2ccc(Nc3ncc(OCc4cc(C(=O)NC)cc(OC)c4F)cn3)cc2)CC1 [Compound 252] | 28 | 6
100 | 40 | 39 | 22 |  |  |  | CCN1CCC(c2ccc(Nc3ncc(OCc4cc(C(=O)NC)cc(OC)c4F)cn3)cn2)CC1 [Compound 256] | 202 | 57
24 | 14 | 13 | 39 |  |  |  | CNC(=O)c1cc(COc2cnc(Nc3ccnc(N4C[C@@H](C)N[C@@H](C)C4)c3)nc2)c(F)c(OC)c1 [Compound 259] | 220 | 141
26 | 13 | 18 | 7 |  |  |  | CNC(=O)c1cc(COc2cnc(Nc3ccc(N4CCOCC4)c(OC)c3)nc2)c(F)c(OC)c1 [Compound 261] | 19 | 13
43 | 20 | 21 | 29 |  |  |  | CCN(CC)CCOc1ccc(Nc2ncc(OCc3cc(C(=O)NC)cc(OC)c3F)cn2)cc1 [Compound 262] | 37 | 133
5 | 5 | 6 | 14 |  |  |  | CNC(=O)c1cc(COc2cnc(Nc3ccc(N4CCN(C)CC4)nc3)nc2)c(Cl)c(OC)c1 [Compound 263] | 7 | 28
10 | 5 | 6 | 8 |  |  |  | CNC(=O)c1cc(COc2cnc(Nc3ccc(N4CCC(N(C)C)CC4)cc3)nc2)c(F)c(OC)c1 [Compound 264] | 7 | 8
6 | 6 | 8 | 17 |  |  |  | CNC(=O)c1cc(COc2cnc(Nc3ccc(N4C[C@@H](C)N(C)[C@@H](C)C4)cc3)nc2)c(F)c(OC)c1 [Compound 267] | 28 | 33
21 | 16 | 20 | 18 |  |  |  | CNC(=O)c1cc(COc2cnc(Nc3ccc(N4C[C@@H](C)N(C)[C@@H](C)C4)nc3)nc2)c(F)c(OC)c1 [Compound 268] | 17 | 47
10 | 7 | 5 | 6 |  |  |  | CNC(=O)c1cc(COc2cnc(Nc3ccc(N4CCN(C)CC4)c(OC)c3)nc2)c(F)c(OC)c1 [Compound 269] | 6 | 5
18 | 9 | 8 | 10 |  |  |  | CNC(=O)c1cc(COc2cnc(Nc3ccc(OC)c(N4CCN(C)CC4)c3)nc2)c(F)c(OC)c1 [Compound 270] | 52 | 23

IC50 ([1]; read-out: FGFR1 (FP) IC50) [nM] | IC50 ([2]; read-out: FGFR2 (FP) IC50) [nM] | IC50 [3] [nM] | IC50 [5] [nM] | IC50 ([1]; FP) [nM] | IC50 ([2]; FP) [nM] | IC50 ([3]; Z-lyte) [nM] | Structure (SMILES) | IC50 [4] [nM] | IC50 [6] [nM]
10 | 9 | 8 | 15 |  |  |  | CCN1CCN(c2ccc(Nc3ncc(OCc4cc(C(=O)NC)cc(OC)c4Cl)cn3)cn2)CC1 [Compound 272] | 18 | 31
14 | 9 | 14 | 18 |  |  |  | CNC(=O)c1cc(OC)c(F)c(COc2cnc(Nc3cccc(N4C[C@@H](C)N[C@@H](C)C4)c3)nc2)c1F [Compound 275] | 46 | 62
20 | 23 | 21 | 21 |  |  |  | CNC(=O)c1cc(COc2cnc(Nc3cnc(N4C[C@@H](C)N[C@@H](C)C4)nc3)nc2)c(Cl)c(OC)c1 [Compound 276] | 83 | 140
20 | 14 | 18 | 36 |  |  |  | CNC(=O)c1cc(COc2cnc(Nc3cnc(N4C[C@@H](C)N[C@@H](C)C4)c(F)c3)nc2)c(F)c(OC)c1 [Compound 277] | 57 | 109
 |  |  | 27 | 23 | 14 | 20 | CNC(=O)c1cc(OC)c(F)c(COc2cnc(Nc3ccc(N4C[C@@H](C)N[C@@H](C)C4)nc3)nc2)c1F [Compound 278] | 34 | 65
 |  |  | 7 | 27 | 18 | 16 | CCN1CCC(c2ccc(Nc3ncc(OCc4cc(C(=O)NC)cc(OC)c4F)cn3)cc2OC)CC1 [Compound 280] | 191 | 29
 |  |  | 14 | 19 | 14 | 19 | CCN1[C@H](C)CN(c2ccc(Nc3ncc(OCc4cc(C(=O)NC)cc(OC)c4F)cn3)cn2)C[C@@H]1C [Compound 281] | 9 | 37
 |  |  | 5 | 18 | 9 | 7 | CNC(=O)c1cc(COc2cnc(Nc3ccc(N4C[C@@H](C)N[C@@H](C)C4)c(OC)c3)nc2)c(F)c(OC)c1 [Compound 282] | 46 | 5
 |  |  | 3 | 12 | 5 | 4 | CCN1CCN(c2ccc(Nc3ncc(OCc4cc(C(=O)NC)cc(OC)c4F)cn3)cc2OC)CC1 [Compound 283] | 8 | 8
 |  |  | 33 | 39 | 24 | 43 | CNC(=O)c1cc(COc2cnc(Nc3ccc([C@H]4CCCN(C(C)=O)C4)nc3)nc2)c(Cl)c(OC)c1 [Compound 284] | 71 | 72
 |  |  | 16 | 7 | 6 | 9 | CNC(=O)c1cc(COc2cnc(Nc3ccc(N4C[C@@H](C)N(C)[C@@H](C)C4)cc3)nc2)c(Cl)c(OC)c1 [Compound 286] | 8 | 43
 |  |  | 14 | 11 | 8 | 8 | CNC(=O)c1cc(COc2cnc(Nc3cnc(N4C[C@@H](C)N[C@@H](C)C4)c(C)c3)nc2)c(Cl)c(OC)c1 [Compound 287] | 54 | 35
 |  |  | 2 | 6 | 4 | 4 | CNC(=O)c1cc(COc2cnc(Nc3ccc(N4CCN(C)CC4)c(OC)c3)nc2)c(Cl)c(OC)c1 [Compound 288] | 2 | 3
 |  |  | 11 | 10 | 7 | 11 | CNC(=O)c1cc(OC)c(Cl)c(COc2cnc(Nc3ccc(N4C[C@@H](C)N[C@@H](C)C4)cc3)nc2)c1F [Compound 290] | 6 | 12
 |  |  | 17 | 17 | 18 | 17 | CNC(=O)c1cc(OC)c(Cl)c(COc2cnc(Nc3ccc(N4C[C@@H](C)N[C@@H](C)C4)nc3)nc2)c1F [Compound 291] | 15 | 27
 |  |  | 17 | 13 | 11 | 14 | CNC(=O)c1cc(COc2cnc(Nc3cnc(N4C[C@@H](C)N[C@@H](C)C4)c(F)c3)nc2)c(Cl)c(OC)c1 [Compound 292] | 46 | 70
 |  |  | 104 | 13 | 13 | 19 | CCN(CC)CCNC(C)c1ccc(Nc2ncc(OCc3cc(C(=O)NC)cc(OC)c3Cl)cn2)cc1 (stereo not drawn) [Compound 295] | 40 | 337
